# From patent publication US11896704B2, “Compounds useful for the treatment and/or care of the skin, hair, nails and/or mucous membranes” (LUBRIZOL ADVANCED MATERIALS, INC., priority 2017, dated 2024)
# How the values were obtained:
# Type in all cases: cell-based
# JARID1A protein (KDM5A) = assay: JARID1A protein level in synchronized human keratinocytes (HaCaT), ELISA normalized to total protein; details: 0.5 mg/ml, 7:30 hours, mean of at least six assays
# Description: In Vitro Study of JARID1A Protein Increase Protein Level by the Peptide […] (PEP-1, H-[SEQ ID. NO. 2]-NH2) on Synchronized Human Keratinocytes Using an ELISA Assay Based on Colorimetric Detection. HaCaT cells (human keratinocyte cell line, Deutsches Krebsforschungszentrum) are seeded at a density of 200.000 cells/well (2 wells per condition) in 12-well plates. Cells are seeded in culture medium Dulbecco's Modified Eagle Medium high GlutamaxTM (Fisher Scientific) supplemented with 10% (volume/volume) Fetal Bovine Serum (Cultek). […] Nuclear extracts are assayed to quantify the level of JARID1A protein and total protein concentration. JARID1A protein is quantified using an enzyme linked immunosorbent assay (Human lysine-specific demethylase 5A (KDM5A) (CUSABIO) according to the manufacturer's protocol. In brief, JARID1A protein is detected with the antibodies provided in the kit and quantified by a colorimetric reaction. Absorbance quantification is carried out by using a microplate reader (ClarioStar®, BMG) set to 450 nm and 570 nm. For wavelength correction, readings at 570 nm were subtracted from readings at 450 nm. Total protein concentration of cell lysate is determined by using Pierce BCA Protein Assay Kit (Thermo Scientific). […] After 30 minutes of incubation at 60° C., the change in colour is measured with the absorbance microplate reader (Clariostar®, BMG) at 562 nm. […]
# [1] = system: Human Dermal Fibroblasts (HDFa); assay: Mitochondrial membrane potential in HDFa, JC-1 fluorescence assay; details: 0.5 mg/ml, 16 hours
# Description: In Vitro Study of Increasing the Mitochondrial Membrane Potential in Human Dermal Fibroblasts (HDFa) by an Immunofluorescence Assay.
# Human Dermal Fibroblasts from adult (HDFa, Life Technologies) are seeded at a density of 6,000 cells/well (3 wells per condition) in 96-well plates. Cells are seeded in culture medium M106 with Low Serum Growth Supplement (Life Technologies) during 24 hours at 37° C. in 5% CO2 humidified air. […]. Non-treated cells incubated with medium alone are used as basal conditions.
# After 16 hours of treatment, cells are used to quantify mitochondria membrane potential by using JC-1 mitochondrial membrane potential assay kit (Abcam) according to the manufacturer's protocol. Briefly, cells are incubated with a JC-1 working solution prepared with Supplemented Dilution Buffer in the presence of the treatment with the peptide at 0.5 mg/ml at 37° C. 5% CO2 for 30 minutes. […]
# Cells are imaged and mitochondrial membrane potential is measured using Operetta® High Content Imaging System (PerkinElmer, Inc). […] Cell number is quantified by using Hoechst 33342 (ThermoFisher Scientific) staining, a cell-permeant nuclear counterstain that emits blue fluorescence at 460 nm when bound to dsDNA and is excited at 350 nm. For each image, intensity fluorescence from energized and depolarized cells is quantified and normalized against the number of nuclei. […]
# [2] = system: mitochondrial complex I (NADH dehydrogenase); assay: Mitochondrial complex I activity in human dermal fibroblasts, colorimetric assay; details: HDFa, 48 hours
# Description: Inhibition of Mitochondrial Complex I Activity Using an Assay Based on Colorimetric Detection. Human Dermal Fibroblasts from adult (HDFa, Life Technologies) are seeded at a density of 750.000 cells/75 cm^2 flask (one flask per condition) in culture medium M106 with Low Serum Growth Supplement (Life Technologies). Cells are grown during 8 days at 37° C. in 5% CO2 humidified air. Then, medium is removed and cells are treated with scalar dilutions of the peptide […] (PEP-1, H-[SEQ ID. NO. 2]-NH2) at 1, 0.5 and 0.1 mg/ml in culture medium during 48 hours at 37° C. in 5% CO2 humidified air. Non-treated cells incubated in culture medium alone are used as basal conditions. […] After 48 hours of treatment, cells are detached using trypsin and resuspended in 60 ul of Phosphate buffer saline (Sigma). Total protein concentration is measured by a Pierce BCA Protein Assay Kit (BCA Assay, Thermo Scientific) following manufacturer's protocol to adjust the final protein concentration between 700-1000 ug/ml. Briefly, standards and samples are dispensed and Working Reagent is added to the samples. After 30 minutes of incubation at 37° C., absorbance is measured with a microplate reader (Clariostar®, BMG) at 562 nm. Mitochondrial complex I activity is measured with Complex I enzyme activity microplate assay Kit (Abcam) according to the manufacture's protocol. This assay follows the oxidation of NADH to NAD coupled to the reduction of a specific colorimetric dye, leading to an increase in absorbance at 450 nm. In brief, 200 ul of each sample (adjusted to 700-1000 ug/ml of total protein amount) is incubated for 3 hours. After that, wells are washed several times and incubated with Assay Solution provided with the kit (composed by NADH and the specific dye). For the determination of mitochondrial complex I activity, colorimetric increase of Optical Density (OD) at 450 nm in a kinetic reaction along 1 hour is measured with a microplate reader (Clariostar©, BMG). Results are calculated as the rate of increase in OD at 450 nm between two points in the linear zone over time. The percentage of mitochondrial complex I activity relative to basal conditions after the treatment with […] (PEP-1, H-[SEQ ID. NO. 2]-NH2) is represented in Table 9. These values represent the mean for at least three independent assays.
substance,measurement,setting,value
H-Phe-Trp-Met-Lys-Arg-Lys-Arg-Val-Pro-NH2 (H-FWMKRKRVP-NH2) [PEP-1],Percentage of JARID1A protein relative to basal condition (%),JARID1A protein (KDM5A),126.84%
same,Percentage of MMP relative to basal conditions (%),[1],130.98%
same,Percentage of mitochondrial complex I activity relative to basal condition (%),[2]; 0.1 mg/mL,83.23%
same,Percentage of mitochondrial complex I activity relative to basal condition (%),[2]; 0.5 mg/mL,71.68%
same,Percentage of mitochondrial complex I activity relative to basal condition (%),[2]; 1 mg/mL,55.35%
